Data taken from patent US4652566A, “Benzofuran derivatives, processes for preparing the same and antihypertensive agents containing the same” (Kaken Pharmaceutical Co., Ltd., priority 1984, dated 1987).
Where a name gives a salt, the structure may show the parent alone. Read-outs that look alike come from different tables or passages of the source.

Tests used:
[1] = molecular target: T1, α-adrenergic blockade (vas deferens specimen, contraction by noradrenalin) (Rattus norvegicus, UniProt P43140); test: α-Adrenergic blockade effect (contraction response by noradrenalin of vas deferens specimen, Magnus method); set-up: species or system Wister male rat
T1 construct: from tissue; host or cells: vas deferens of six-week-old male Wistar rat
T1 sequence (P43140 1-466): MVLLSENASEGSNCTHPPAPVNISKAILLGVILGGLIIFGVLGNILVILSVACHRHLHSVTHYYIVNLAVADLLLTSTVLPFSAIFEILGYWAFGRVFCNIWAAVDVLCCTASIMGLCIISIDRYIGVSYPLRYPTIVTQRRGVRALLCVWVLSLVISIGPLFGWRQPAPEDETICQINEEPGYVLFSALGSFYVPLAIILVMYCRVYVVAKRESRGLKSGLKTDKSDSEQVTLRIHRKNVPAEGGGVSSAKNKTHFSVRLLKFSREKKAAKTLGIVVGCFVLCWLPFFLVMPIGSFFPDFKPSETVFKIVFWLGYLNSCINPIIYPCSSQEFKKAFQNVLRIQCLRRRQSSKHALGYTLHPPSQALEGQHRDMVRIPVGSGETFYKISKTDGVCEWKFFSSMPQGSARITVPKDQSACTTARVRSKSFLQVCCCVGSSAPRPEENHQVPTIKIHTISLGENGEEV

[2] = Accute toxicity test (LD50 value); settings: mouse, in vivo; mice; single oral administration; deaths by seventh day; Litchfield-Wilcoxon
Procedure: [Accute toxicity test (LD50 value)]
The experiment was carried out using six weeks old ddy male mice.
Each of test compounds was suspended in an aqueous solution containing 5% by weight of acasia and the suspension was administered compulsorily once orally with a gastric probe. Within six hours after the start of the administration, the behavior of tested mice were observed consecutively. Thereafter, the observation was made at an interval of twenty four hours during 7 days and an accumulative number of deaths seventh day since the start of the administration was measured.
LD50 value was calculated according to the Litchfield-Wilcoxon method.

[3] = molecular target: T2, calcium antagonism (thoracic aorta spiral specimen, contraction by calcium) (Cavia porcellus, UniProt O35505); test: Calcium antagonistic effect (contraction response by calcium of spiral thoracic aorta specimen, Magnus method); set-up: species or system Hartly male giunea pig; settings: guinea pig thoracic aorta, antagonism of calcium contraction; for Kb: read-out: Calcium antagonistic effect, pA2 value (converted)
T2 construct: from tissue; host or cells: thoracic aorta spiral strip of male Hartley guinea pig
T2 sequence (O35505 whole entry): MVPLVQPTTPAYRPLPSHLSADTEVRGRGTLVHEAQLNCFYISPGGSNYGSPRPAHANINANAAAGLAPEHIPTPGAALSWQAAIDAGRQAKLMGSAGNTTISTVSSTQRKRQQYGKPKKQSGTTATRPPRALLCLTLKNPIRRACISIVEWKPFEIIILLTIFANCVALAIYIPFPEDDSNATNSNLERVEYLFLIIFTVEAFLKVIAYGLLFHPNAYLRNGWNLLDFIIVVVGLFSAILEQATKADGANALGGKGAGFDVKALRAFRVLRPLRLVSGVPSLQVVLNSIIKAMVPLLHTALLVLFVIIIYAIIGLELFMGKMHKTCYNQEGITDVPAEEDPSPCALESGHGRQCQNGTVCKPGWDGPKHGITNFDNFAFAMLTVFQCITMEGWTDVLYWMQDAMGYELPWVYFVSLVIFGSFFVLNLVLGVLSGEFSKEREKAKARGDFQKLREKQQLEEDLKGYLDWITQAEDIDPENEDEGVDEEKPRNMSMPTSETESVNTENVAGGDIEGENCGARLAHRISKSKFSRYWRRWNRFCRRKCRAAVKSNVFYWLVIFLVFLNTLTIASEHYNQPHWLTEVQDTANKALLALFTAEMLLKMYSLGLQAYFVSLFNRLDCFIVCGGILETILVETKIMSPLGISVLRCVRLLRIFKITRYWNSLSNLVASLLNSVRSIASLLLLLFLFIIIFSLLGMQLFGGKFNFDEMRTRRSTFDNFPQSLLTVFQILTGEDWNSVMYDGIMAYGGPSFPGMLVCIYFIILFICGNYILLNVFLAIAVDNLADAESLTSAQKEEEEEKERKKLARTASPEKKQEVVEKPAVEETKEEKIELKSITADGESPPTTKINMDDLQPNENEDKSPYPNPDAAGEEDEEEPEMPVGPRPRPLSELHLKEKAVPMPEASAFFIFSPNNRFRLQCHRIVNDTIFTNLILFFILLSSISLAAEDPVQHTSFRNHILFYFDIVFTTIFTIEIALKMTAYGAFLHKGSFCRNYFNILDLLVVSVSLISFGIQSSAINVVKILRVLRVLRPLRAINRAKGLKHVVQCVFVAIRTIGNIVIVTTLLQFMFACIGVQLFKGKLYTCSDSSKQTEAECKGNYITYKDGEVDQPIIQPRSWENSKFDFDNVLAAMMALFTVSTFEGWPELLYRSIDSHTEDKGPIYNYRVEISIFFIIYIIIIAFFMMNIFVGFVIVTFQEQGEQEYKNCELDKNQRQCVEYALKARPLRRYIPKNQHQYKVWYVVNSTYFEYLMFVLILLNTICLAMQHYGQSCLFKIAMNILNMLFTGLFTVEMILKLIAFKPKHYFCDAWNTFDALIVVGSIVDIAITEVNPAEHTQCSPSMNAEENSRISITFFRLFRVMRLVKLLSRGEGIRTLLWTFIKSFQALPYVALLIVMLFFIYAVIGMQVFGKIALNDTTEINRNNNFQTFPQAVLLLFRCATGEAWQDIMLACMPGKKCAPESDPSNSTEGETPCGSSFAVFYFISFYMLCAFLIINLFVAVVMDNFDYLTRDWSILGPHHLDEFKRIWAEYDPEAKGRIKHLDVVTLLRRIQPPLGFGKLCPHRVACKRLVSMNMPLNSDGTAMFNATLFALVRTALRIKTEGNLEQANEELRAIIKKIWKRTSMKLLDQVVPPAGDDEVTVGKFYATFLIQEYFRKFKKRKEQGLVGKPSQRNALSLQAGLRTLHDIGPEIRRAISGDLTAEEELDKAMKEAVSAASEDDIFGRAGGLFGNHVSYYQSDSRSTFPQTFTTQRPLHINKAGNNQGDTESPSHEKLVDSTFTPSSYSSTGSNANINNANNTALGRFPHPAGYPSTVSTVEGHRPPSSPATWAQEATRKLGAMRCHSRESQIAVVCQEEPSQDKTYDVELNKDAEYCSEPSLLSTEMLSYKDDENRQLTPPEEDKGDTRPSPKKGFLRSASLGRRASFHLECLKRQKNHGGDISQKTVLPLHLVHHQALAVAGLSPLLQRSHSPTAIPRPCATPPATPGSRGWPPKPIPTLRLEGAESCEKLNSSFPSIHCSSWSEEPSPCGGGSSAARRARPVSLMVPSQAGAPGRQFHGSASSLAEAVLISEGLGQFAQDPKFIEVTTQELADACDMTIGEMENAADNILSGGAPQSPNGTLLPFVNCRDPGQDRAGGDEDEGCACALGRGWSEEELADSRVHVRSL
Procedure: [Calcium antagonistic effect]
Using a spiral blood vessel specimen taken from a thoracic aorta of Hartly male giunea pig weighed 400 to 600 g, a contraction response by calcium was measured as a dose-response curve according to Magnus method and the antagonistic activity for each test compound was indicated as above-mentioned pA2 value.

[4] = Antihypertensive effect and effect on heart rate in spontaneously hypertensive rat (SHR); assay type: in vivo; settings: po, single dose
Procedure: [Antihypertensive effect and effect on a heart rate on rat suffering from a spontaneously hypertensive rat (SHR)]
A blood pressure was measured under no anesthetic condition by means of an apparatus for recording a blood pressure of a tail artery and a heart rate (Riken Kaihatsu Co., Ltd.) (PS-802) and at the same time a heart rate was also measured.
Each of test compounds was dissolved or suspended in an aqueous solution containing 5% by weight of acasia and the obtained solution or suspension was administered once orally to SHR which had been kept under a fast condition for one night. A blood pressure and a heart rate were measured before administration and after one hour, three hours, five hours and seven hours of it and the maximum value of changes were calculated by comparing the value measured before administration with the value measured after administration.
For the purpose of a comparison, the same experiment as mentioned above was carried out on both Labetalol and Diltiazem as mentioned above.
With respect to a dosage, 100 mg/kg and 10 mg/kg as to compounds obtained by Examples 2, 5, 6, 9 and 18 to 23 were respectively administered, 100 mg/kg as to compounds obtained by Examples 1, 3, 4, 7 and 10 to 17 was respectively administered.

[5] = rat vas deferens, antagonism of noradrenalin contraction, pA2 = negative logarithm of antagonist dose shifting agonist curve two times, read-out: α-Adrenergic blockade effect, pA2 value (converted)
[6] = 10 mg/kg, maximum over 1, 3, 5, 7 hours (Table 2)
[7] = 100 mg/kg, maximum over 1, 3, 5, 7 hours (Table 2)
[8] = 100 mg/kg, maximum over 1, 3, 5, 7 hours (Table 3)
[9] = rat vas deferens, antagonism of noradrenalin contraction, pA2 = negative logarithm of antagonist dose shifting agonist curve two times

Structure (SMILES)	LD50 at 168 h [2]	Maximum value of change, heart rate [4, 6]	Maximum value of change, systolic pressure [4, 6]	Maximum value of change, heart rate [4, 7]	Maximum value of change, systolic pressure [4, 7]	other results
COc1ccccc1N1CCN(CC(O)COc2cccc3cc(C(=O)O)oc23)CC1 (stereo not shown) [Ex. 21 (HCl salt), 2-carboxy-7-{2-hydroxy-3-[4-(2-methoxyphenyl)piperazinyl]propoxy}benzofuran]	> 1000 mg/kg					Kb [1, 5]: 0.355 µM; Kb [3]: 3.31 µM
CC(=O)c1cc2cccc(OCC(O)CN3CCN(c4ccccc4C)CC3)c2o1 (stereo not shown) [Ex. 6, 2-acetyl-7-{2-hydroxy-3-[4-(2-methylphenyl)-piperazinyl]propoxy}benzofuran]		-70.0 ± 20.3 beats/min	-71.7 ± 4.9 mmHg	-135.8 ± 17.0 beats/min	-90.3 ± 9.2 mmHg	
COc1ccc(N2CCN(CC(O)COc3cccc4cc(C(N)=O)oc34)CC2)cc1 (stereo not shown) [Ex. 10, 2-carbamoyl-7-{2-hydroxy-3-[4-(4-methoxyphenyl)piperazinyl]porpoxy,}benzofuran]	1100 mg/kg					Maximum value of change, heart rate [4, 8]: -80.0 ± 37.6 beats/min; Maximum value of change, systolic pressure [4, 8]: -97.9 ± 4.0 mmHg; α-Adrenergic blockade effect, relative ratio as compared with Phentolamine [1]: 1.8; Kb [1, 5]: 0.0871 µM; Kb [3]: 1.26 µM
CCOC(=O)c1cc2cc(OCC(O)CN3CCN(c4ccccc4OC)CC3)ccc2o1 (stereo not shown) [Ex. 19, 2-ethoxycarbonyl-5-{2-hydroxy-3-[4-(2-methoxyphenyl)piperrazinyl]propoxy}benzofuran]		-68.4 ± 45.1 beats/min	-37.6 ± 9.0 mmHg	-73.4 ± 19.6 beats/min	-60.1 ± 10.8 mmHg	
CC(=O)c1cc2cccc(OCC(O)CN3CCN(c4ccccc4C)CC3)c2o1 (stereo not shown) [Ex. 6 (HCl salt), 2-acetyl-7-{2-hydroxy-3-[4-(2-methylphenyl)-piperazinyl]propoxy}benzofuran]	> 1500 mg/kg					Kb [1, 5]: 0.0447 µM; Kb [3]: 0.468 µM
CC(CCc1ccccc1)NCC(O)c1ccc(O)c(C(N)=O)c1 (stereo not shown) [Labetalol, reference compound]		-122.5 ± 37.5 beats/min	-32.9 ± 12.9 mmHg	-125.2 ± 25.6 beats/min	-55.0 ± 9.1 mmHg	Maximum value of change, heart rate [4, 8]: -125.2 ± 25.6 beats/min; Maximum value of change, systolic pressure [4, 8]: -55.0 ± 9.1 mmHg; Kb [1]: 1.51 µM
COc1ccccc1N1CCN(CC(O)COc2cccc3cc(C(=O)O)oc23)CC1 (stereo not shown) [Ex. 21, 2-carboxy-7-{2-hydroxy-3-[4-(2-methoxyphenyl)piperazinyl]propoxy}benzofuran]		-5.8 ± 8.7 beats/min	-46.9 ± 6.3 mmHg	-25.7 ± 16.4 beats/min	-73.8 ± 9.9 mmHg	
CCOC(=O)c1cc2cccc(OCC(O)CN3CCN(c4ccccc4OC)CC3)c2o1 (stereo not shown) [Ex. 18, 2-ethoxycarbonyl-7-{2-hydroxy-3-[4-(2-methoxyphenyl)-piperazinyl]propoxy}benzofuran]		-96.7 ± 35.1 beats/min	-35.8 ± 4.6 mmHg	-138.3 ± 25.4 beats/min	-65.1 ± 5.5 mmHg	
COc1ccc([C@@H]2Sc3ccccc3N(CCN(C)C)C(=O)[C@@H]2OC(C)=O)cc1 [Diltiazem, reference compound]		-140.0 ± 27.5 beats/min	-12.8 ± 5.7 mmHg	-136.7 ± 34.2 beats/min	-79.9 ± 11.6 mmHg	Maximum value of change, heart rate [4, 8]: -136.7 ± 34.2 beats/min; Maximum value of change, systolic pressure [4, 8]: -79.9 ± 11.6 mmHg
CC(=O)c1cc2cc(OCC(O)CN3CCN(c4ccccc4C)CC3)ccc2o1 (stereo not shown) [Ex. 7 (HCl salt)]	> 2000 mg/kg					Kb [1, 5]: 0.219 µM; Kb [3]: 0.631 µM
CCOC(=O)c1cc2cc(OCC(O)CN3CCN(c4ccccc4C)CC3)ccc2o1 (stereo not shown) [Ex. 20, 2-ethoxycarbonyl-5-{2-hydroxy-3-[4-(2-methylphenyl)-piperazinyl]propoxy}benzofuran]		-81.1 ± 22.2 beats/min	-57.5 ± 12.5 mmHg	-87.5 ± 17.7 beats/min	-80.7 ± 13.6 mmHg	
COc1ccccc1N1CCN(CC(O)COc2ccc3oc(C(C)=O)cc3c2)CC1 (stereo not shown) [Ex. 5]		-49.2 ± 28.0 beats/min	-56.3 ± 6.0 mmHg	-143.4 ± 34.2 beats/min	-101.3 ± 5.2 mmHg	
COc1ccccc1N1CCN(CC(O)COc2cccc3cc(C(C)=O)oc23)CC1 (stereo not shown) [Ex. 2, 2-acetyl-7-{2-hydroxy-3-[4-(2-methoxyphenyl)piperazinyl]-propoxy}benzofuran]	> 1500 mg/kg	-121.7 ± 15 beats/min	-54.8 ± 11.2 mmHg	-155.6 ± 15.5 beats/min	-72.4 ± 8.9 mmHg	
CCOC(=O)c1cc2cc(OCC(O)CN3CCN(c4ccccc4C)CC3)ccc2o1 (stereo not shown) [Ex. 20 (HCl salt), 2-ethoxycarbonyl-5-{2-hydroxy-3-[4-(2-methylphenyl)-piperazinyl]propoxy}benzofuran]	> 1500 mg/kg					α-Adrenergic blockade effect, pA2 value [1, 9]: 6.46 ± 0.09; Calcium antagonistic effect, pA2 value [3]: 4.88 ± 0.70
CCOC(=O)c1cc2cc(OCC(O)CN3CCN(c4ccccc4OC)CC3)ccc2o1 (stereo not shown) [Ex. 19 (HCl salt), 2-ethoxycarbonyl-5-{2-hydroxy-3-[4-(2-methoxyphenyl)piperrazinyl]propoxy}benzofuran]	> 1500 mg/kg					α-Adrenergic blockade effect, pA2 value [1, 9]: 6.72 ± 0.03; Calcium antagonistic effect, pA2 value [3]: 5.28 ± 0.14
CCOC(=O)c1cc2cccc(OCC(O)CN3CCN(c4ccccc4OC)CC3)c2o1 (stereo not shown) [Ex. 18 (HCl salt), 2-ethoxycarbonyl-7-{2-hydroxy-3-[4-(2-methoxyphenyl)-piperazinyl]propoxy}benzofuran]	> 1000 mg/kg					Kb [1, 5]: 0.0741 µM; Kb [3]: 0.209 µM
CC(=O)c1cc2cc(OCC(O)CN3CCN(c4ccccc4C)CC3)ccc2o1 (stereo not shown) [Ex. 7]		-45.0 ± 17.2 beats/min	-86.4 ± 8.6 mmHg	-51.3 ± 20.2 beats/min	-117.5 ± 12.6 mmHg	
